Measurements reported in patent US6737383B1, “Herbicidal oxadiazolidines” (priority 1999, dated 2004).

How the values were obtained:
pigweed = experiment: Test B pre/postemergence pigweed; format: in vivo, Amaranthus retroflexus; conditions: for Redroot pigweed plant response rating (0 to 10 scale): 0 is no effect
Method in brief: (§1)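 Test chemicals in a non-phytotoxic solvent mixture with surfactant were sprayed preemergence onto planted seeds and postemergence onto plants 2 to 18 cm tall (1- to 4-leaf stage). After twelve to sixteen days in a greenhouse, injury was visually rated against untreated controls from 0 (no effect) to 10 (complete control).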

rape = experiment: Test B pre/postemergence rape; format: in vivo, Brassica napus; conditions: for Rape plant response rating (0 to 10 scale): 0 is no effect
Method in brief: as §1

soybean = experiment: Test B pre/postemergence soybean; format: in vivo, Glycine max; conditions: for Soybean plant response rating (0 to 10 scale): 0 is no effect
Method in brief: as §1

sugar beet = experiment: Test B pre/postemergence sugar beet; format: in vivo, Beta vulgaris; conditions: for Sugarbeets plant response rating (0 to 10 scale): 0 is no effect
Method in brief: as §1

[1] = Postemergence, Rate 62 g/ha, scale 0 to 10, 0 is no effect, 10 is complete control
[2] = Postemergence, Rate 125 g/ha, scale of 0 to 10 where 0 is no effect and 10 is complete control
[3] = Preemergence, Rate 62 g/ha, scale 0 to 10 (0 no effect, 10 complete control)
[4] = Preemergence, Rate 125 g/ha, scale 0 to 10 (0 no effect, 10 complete control)
[5] = Preemergence, Rate 250 g/ha, scale of 0 to 10 where 0 is no effect and 10 is complete control
[6] = Preemergence, Rate 500 g/ha, scale 0 (no effect) to 10 (complete control)
[7] = Rate 250 g/ha, Postemergence, scale 0 to 10, 0 is no effect, 10 is complete control
[8] = Rate 500 g/ha, Postemergence, scale 0 to 10, 0 no effect, 10 complete control
[9] = Postemergence, Rate 250 g/ha, scale 0 to 10, 0 no effect, 10 complete control
[10] = Preemergence, Rate 125 g/ha, 10 is complete control
[11] = Rate 62 g/ha, Postemergence, scale of 0 to 10 where 0 is no effect and 10 is complete control
[12] = Preemergence, Rate 500 g/ha, scale 0 to 10 (0 no effect, 10 complete control)
[13] = Preemergence, Rate 250 g/ha, scale 0 to 10, 0 is no effect, 10 is complete control
[14] = Rate 500 g/ha, Postemergence, scale 0 to 10

Row | SMILES | Redroot pigweed plant response rating (pigweed; [2]) | Redroot pigweed plant response rating (pigweed; [3]) | Plant response rating, Redroot pigweed (pigweed; [5]) | Plant response rating, Redroot pigweed (pigweed; [7]) | Redroot pigweed plant response rating (pigweed; [8]) | Rape plant response rating (rape; [2]) | Rape plant response rating (rape; [3]) | Plant response rating, Rape (rape; [5]) | Rape plant response rating (rape; [8]) | Soybean plant response rating (soybean; [2]) | Soybean plant response rating (soybean; [3]) | Plant response rating, Soybean (soybean; [7]) | Sugarbeets plant response rating (sugar beet; [2]) | Sugarbeets plant response rating (sugar beet; [3]) | Sugarbeets plant response rating (0 to 10 scale) (sugar beet; [10]) | Plant response rating, Sugarbeets (sugar beet; [7]) | Redroot pigweed plant response rating (pigweed; [11]) | Rape plant response rating (rape; [11]) | Soybean plant response rating (soybean; [11]) | Sugarbeets plant response rating (sugar beet; [11]) | further results
1 | Cc1nn(C)c(Cl)c1-n1c(=O)on(C(=O)N(c2ccc(F)cc2)C(C)C)c1=O [Compound 95] | 3 | 5 | 9 | 3 | 5 | 0 | 0 | 3 | 0 | 1 | 0 | 1 | 2 | 0 | 1 | 4 |  |  |  |  | Redroot pigweed plant response rating (pigweed; [1]): 2; Plant response rating, Redroot pigweed (pigweed; [4]): 6; Redroot pigweed plant response rating (pigweed; [6]): 9; Rape plant response rating (rape; [1]): 0; Rape plant response rating (rape; [9]): 0; Plant response rating, Rape (rape; [4]): 0; Rape plant response rating (rape; [6]): 3; Soybean plant response rating (soybean; [1]): 1; Plant response rating, Soybean (soybean; [4]): 0; Plant response rating, Soybean (soybean; [5]): 0; Soybean plant response rating (soybean; [6]): 0; Soybean plant response rating (soybean; [8]): 1; Sugarbeets plant response rating (sugar beet; [1]): 2; Plant response rating, Sugarbeets (sugar beet; [5]): 2; Sugarbeets plant response rating (sugar beet; [6]): 3; Sugarbeets plant response rating (sugar beet; [8]): 4
2 | CCc1noc(C)c1-n1c(=O)on(C(=O)N(c2ccc(F)cc2)C(C)C)c1=O [Compound 101] | 0 | 0 | 0 | 0 | 0 | 0 | 0 | 0 | 0 | 2 | 0 | 3 | 0 | 0 | 0 | 0 | 0 | 0 | 2 | 0 | Plant response rating, Redroot pigweed (pigweed; [4]): 0; Redroot pigweed plant response rating (pigweed; [6]): 0; Rape plant response rating (rape; [9]): 0; Plant response rating, Rape (rape; [4]): 0; Rape plant response rating (rape; [6]): 0; Plant response rating, Soybean (soybean; [4]): 0; Plant response rating, Soybean (soybean; [5]): 0; Soybean plant response rating (soybean; [6]): 0; Soybean plant response rating (soybean; [8]): 3; Plant response rating, Sugarbeets (sugar beet; [5]): 0; Sugarbeets plant response rating (sugar beet; [6]): 0; Sugarbeets plant response rating (sugar beet; [8]): 0
3 | CC(C)N(C(=O)n1oc(=O)n(-c2cnn(C)c2Cl)c1=O)c1ccccc1 [Compound 122] | 1 | 0 | 8 | 2 | 5 | 0 | 0 | 0 | 4 | 3 | 0 | 3 | 0 | 0 | 0 | 0 | 0 | 0 | 3 | 0 | Redroot pigweed plant response rating (0 to 10 scale) (pigweed; [10]): 5; Redroot pigweed plant response rating (pigweed; [12]): 8; Rape plant response rating (0 to 10 scale) (rape; [10]): 0; Rape plant response rating (rape; [12]): 3; Plant response rating, Rape (rape; [7]): 3; Soybean plant response rating (0 to 10 scale) (soybean; [10]): 0; Plant response rating, Soybean (soybean; [5]): 0; Soybean plant response rating (soybean; [12]): 0; Soybean plant response rating (soybean; [8]): 5; Plant response rating, Sugarbeets (sugar beet; [5]): 0; Sugarbeets plant response rating (sugar beet; [12]): 4; Sugarbeets plant response rating (sugar beet; [8]): 2
4 | CCOC(=O)Cn1c(=O)on(C(=O)N(c2ccc(F)cc2)C(C)C)c1=O [Compound 128] | 0 | 0 |  | 0 |  | 0 | 0 |  |  | 0 | 0 | 0 | 0 | 0 | 0 | 0 | 0 | 0 | 0 | 0 | Redroot pigweed plant response rating (0 to 10 scale) (pigweed; [10]): 0; Redroot pigweed plant response rating (pigweed; [13]): 0; Redroot pigweed plant response rating (pigweed; [12]): 0; Redroot pigweed plant response rating (pigweed; [14]): 0; Rape plant response rating (0 to 10 scale) (rape; [10]): 0; Rape plant response rating (rape; [13]): 0; Rape plant response rating (rape; [12]): 0; Plant response rating, Rape (rape; [7]): 0; Rape plant response rating (rape; [14]): 0; Soybean plant response rating (0 to 10 scale) (soybean; [10]): 0; Soybean plant response rating (soybean; [13]): 0; Soybean plant response rating (soybean; [12]): 0; Soybean plant response rating (soybean; [14]): 0; Sugarbeets plant response rating (sugar beet; [13]): 0; Sugarbeets plant response rating (sugar beet; [12]): 0; Sugarbeets plant response rating (sugar beet; [14]): 0
5 | Cc1ccccc1Cn1c(=O)on(C(=O)N(c2ccc(Cl)cc2)C(C)C)c1=O [Compound 136] | 4 | 7 |  | 6 |  | 0 | 0 |  |  | 4 | 0 | 4 | 4 | 4 | 4 | 7 | 3 | 0 | 3 | 3 | Redroot pigweed plant response rating (0 to 10 scale) (pigweed; [10]): 8; Redroot pigweed plant response rating (pigweed; [13]): 10; Redroot pigweed plant response rating (pigweed; [12]): 10; Redroot pigweed plant response rating (pigweed; [14]): 6; Rape plant response rating (0 to 10 scale) (rape; [10]): 0; Rape plant response rating (rape; [13]): 0; Rape plant response rating (rape; [12]): 0; Plant response rating, Rape (rape; [7]): 2; Rape plant response rating (rape; [14]): 4; Soybean plant response rating (0 to 10 scale) (soybean; [10]): 0; Soybean plant response rating (soybean; [13]): 0; Soybean plant response rating (soybean; [12]): 0; Soybean plant response rating (soybean; [14]): 5; Sugarbeets plant response rating (sugar beet; [13]): 8; Sugarbeets plant response rating (sugar beet; [12]): 9; Sugarbeets plant response rating (sugar beet; [14]): 8
